This is an account of results in patent US9012398B2, “Acylated exendin-4 compounds” (priority 2006, dated 2015).

Read-outs that look alike come from different tables or passages of the source. Starred links: 1 amine or outer side, 2 acyl side, 3 side chain; linkers in the order of their positions; H or OH if unused. Residues, ends and D or L forms follow the SMILES beside them. Groups on a side chain read outwards from the residue. *: point of attachment. Palmitoyl(16-(5-tetrazolyl)) = O=C(CCCCCCCCCCCCCCCc1nnn[nH]1)*; C18 diacid = O=C(O)CCCCCCCCCCCCCCCCC(=O)*; γGlu = O=C(O)[C@H](CCC(=O)[*:2])N[*:1]; Stearoyl = CCCCCCCCCCCCCCCCCC(=O)*; AEEA = NCCOCCOCC(=O)O

Data set [1] deals with db/db mice. Kind of data set: Pharmacodynamic study using db/db mice (blood glucose after subcutaneous dosing). The data set is classed as in vivo. Conditions: 30 nmol/kg subcutaneous. The protocol: The efficacy and duration of action were measured after dosing of 30 nmol/kg to db/db mice. Male db/db mice were shipped from Taconic, Denmark at the age of 8-10 weeks. From the time of arrival, the mice were housed under standard conditions but at 24° C. The mice were kept 10 per cage until experimentation with free access to standard chow (Altromin, Brogaarden APS., Denmark) and tap water at a normal day: light cycle (light on at 6 am). […] After this, the mice were euthanized.
After an acclimatisation period of 1 week, the blood glucose was measured by sampling from the tail tip capillary. In brief, 5 μl blood was sampled in heparinised glass capillary tubes and immediately suspended in 250 μl EBIO buffer solution (Eppendorf, Germany) in an 1.5 ml Eppendorf tube. The blood glucose concentration was measured by the glucose oxidase method at the EBIO Plus Auto analyser (Eppendorf, Germany).
The cut of value for blood glucose was 10 mM. When evaluating the mice, it was considered essential, that all 42 mice entering the experiment had blood glucose values above 10 mM, but also that the inter-mice variance was small. Therefore, if many mice were not severely diabetic, whereas some were, the start up of experiments was postponed one week and new basal blood glucose measurements were made.
Based on the basal blood glucose values, the mice were allocated to 7 groups of n=6 with matching group mean blood glucose values.
On the day of testing the basal blood glucose morning values were assessed as described above and the basal body weight of each mouse was assessed. A time 0, the compound was dosed subcutaneously in the scruff of the neck (dosing volume app. 300 μl/50 g mouse).
The blood glucose values were followed up to 48 hours (time 1, 3, 6, 24 and 48 h) and the terminal body weight was assessed.
All data were entered into Graphpad Prism where mean blood glucose and mean delta body weights were calculated.

Data set [2] concerns the target T1, human GLP-1 receptor (Homo sapiens, UniProt P43220).
T1 construct: expressed in transfected cells; host or cells: BHK cells, clone BHK-467-12A; plasma membrane preparation
The data set is described as follows: Functional receptor assay: cAMP formation in plasma membranes of BHK cells expressing the cloned human GLP-1 receptor (GLP1cAMPma). Type of data set: biochemical. The essentials:
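cAMP formation was read by AlphaScreen after a 3 h room-temperature incubation of agonist with human GLP-1 receptor BHK membranes (6 μg/well). The pH 7.4 buffer held 10 mM MgCl2, 1 mM ATP, 1 μM GTP and 0.5 mM IBMX. EC50 values were estimated by four-parameter logistic regression.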

Data set [3] in a line: Chemical stability of solubilised peptide at 40° C., impurities monitored by RP-HPLC/UPLC. Type of data set: physicochemical. Conditions: 2.5 weeks, 100 nmol peptide in 1 ml phosphate buffered saline, pH 7.4. The method, then: The chemical stability of solubilised acylated exendin-4 compounds were monitored by RP-HPLC following incubation at […]
The formation of exendin analogue related impurities relative to control samples stored in the freezer were monitored with a Waters UPLC system. Samples were applied to Acquity UPLC BEH C18 (1.7 μm) 2.1×50 mm column and eluted at a flow rate of 0.9 ml/min with linear stepwise gradients of acetonitrile in 0.1% trifluoroacetic acid (from 5 to 100% acetonitrile for 10 min, and from 100 to 5% acetonitrile for 1 min). The column was heated to 30 C and detection was performed at 214 nm.

The mark [4] stands for this setting: cAMP, membranes with human GLP-1 receptor, mean value, read-out: GLP1cAMPma (3693) [EC50 (nM)] Mean Value.

The EC50 is the concentration needed to bring the measured effect to its halfway point.

T1 sequence (P43220 24-463): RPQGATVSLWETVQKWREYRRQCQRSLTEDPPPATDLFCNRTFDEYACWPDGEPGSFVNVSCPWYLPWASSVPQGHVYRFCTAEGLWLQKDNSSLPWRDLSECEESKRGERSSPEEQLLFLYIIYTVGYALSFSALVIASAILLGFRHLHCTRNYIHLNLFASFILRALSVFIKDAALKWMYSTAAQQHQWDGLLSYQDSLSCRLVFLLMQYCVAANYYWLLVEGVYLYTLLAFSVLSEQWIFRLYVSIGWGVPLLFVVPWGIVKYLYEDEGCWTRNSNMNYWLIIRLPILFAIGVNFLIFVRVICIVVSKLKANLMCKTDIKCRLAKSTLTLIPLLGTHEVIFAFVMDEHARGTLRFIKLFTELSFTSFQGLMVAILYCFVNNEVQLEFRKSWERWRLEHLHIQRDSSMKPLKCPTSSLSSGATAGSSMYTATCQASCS

`CCCCCCCCCCCCCCCCCC(=O)NCCOCCOCC(=O)NCCOCCOCC(=O)NCCOCCOCC(=O)NCCCC[C@H](NC(=O)[C@@H](NC(=O)[C@H](C)NC(=O)[C@H](CCC(=O)O)NC(=O)[C@H](CCC(=O)O)NC(=O)[C@H](CCC(=O)O)NC(=O)[C@H](CC(C)C)NC(=O)[C@H](CCC(N)=O)NC(=O)[C@H](CCCNC(=N)N)NC(=O)[C@H](CO)NC(=O)[C@H](CC(C)C)NC(=O)[C@H](CC(=O)O)NC(=O)[C@H](CO)NC(=O)[C@@H](NC(=O)[C@H](Cc1ccccc1)NC(=O)[C@@H](NC(=O)CNC(=O)[C@H](CCC(=O)O)NC(=O)CNC(=O)[C@@H](N)Cc1c[nH]cn1)[C@@H](C)O)[C@@H](C)O)C(C)C)C(=O)N[C@@H](CC(C)C)C(=O)N[C@@H](Cc1ccccc1)C(=O)N[C@H](C(=O)N[C@@H](CCC(=O)O)C(=O)N[C@@H](Cc1c[nH]c2ccccc12)C(=O)N[C@@H](CC(C)C)C(=O)N[C@@H](CCCNC(=N)N)C(=O)N[C@@H](CCCNC(=N)N)C(=O)NCC(=O)NCC(=O)N1CCC[C@H]1C(=O)N[C@@H](CO)C(=O)N[C@@H](CO)C(=O)NCC(=O)N[C@@H](C)C(=O)N1CCC[C@H]1C(=O)N1CCC[C@H]1C(=O)N1CCC[C@H]1C(=O)N[C@@H](CO)C(N)=O)[C@@H](C)CC` [Example 5, N-ε^20-(2-(2-(2-(2-(2-(2-(2-(2-(2-(Octadecanoylamino)ethoxy)ethoxy)acetylamino)ethoxy)ethoxy)acetyl-amino)ethoxy)ethoxy)acety))[Arg^12,27,28,Leu^14,Lys^20 Exendin-4(1-39)amide] (H-HGEGTFTSDLSRQLEEEAVK([AEEA-AEEA-AEEA-Stearoyl])LFIEWLRRGGPSSGAPPPS-NH2; N-terminus assumed): the “Delta AUC for blood glucose after 30 nmol/kg in db/db mice, 48 hours” value (“Delta AUC for blood glucose” below) in data set [1] is listed as −410 ± 111, *** mM × hour. In data set [2], the EC50 was 0.007 nM.
As for `CC[C@H](C)[C@H](NC(=O)[C@H](Cc1ccccc1)NC(=O)[C@H](CC(C)C)NC(=O)[C@H](CCCNC(=N)N)NC(=O)[C@@H](NC(=O)[C@H](C)NC(=O)[C@H](CCC(=O)O)NC(=O)[C@H](CCC(=O)O)NC(=O)[C@H](CCC(=O)O)NC(=O)[C@H](CC(C)C)NC(=O)[C@H](CCC(N)=O)NC(=O)[C@H](CCCNC(=N)N)NC(=O)[C@H](CO)NC(=O)[C@H](CC(C)C)NC(=O)[C@H](CC(=O)O)NC(=O)[C@H](CO)NC(=O)[C@@H](NC(=O)[C@H](Cc1ccccc1)NC(=O)[C@@H](NC(=O)CNC(=O)[C@H](CCC(=O)O)NC(=O)CNC(=O)[C@@H](N)Cc1c[nH]cn1)[C@@H](C)O)[C@@H](C)O)C(C)C)C(=O)N[C@@H](CCC(=O)O)C(=O)N[C@@H](Cc1c[nH]c2ccccc12)C(=O)N[C@@H](CC(C)C)C(=O)N[C@@H](CCCNC(=N)N)C(=O)N[C@@H](CC(N)=O)C(=O)NCC(=O)NCC(=O)N1CCC[C@H]1C(=O)N[C@@H](CO)C(=O)N[C@@H](CO)C(=O)N[C@@H](CCCCNC(=O)COCCOCCNC(=O)CCCCCCCCCCCCCCCCC(=O)O)C(=O)N[C@@H](C)C(=O)N1CCC[C@H]1C(=O)N1CCC[C@H]1C(=O)N1CCC[C@H]1C(=O)N[C@@H](CO)C(N)=O` [Example 8, N-ε^34-(2-(2-(2-(17-carboxyheptadecanoylamino)ethoxy)ethoxy)acetyl) [Leu^14,Arg^12,27,Lys^34]Exendin-4(1-39)amide] (H-HGEGTFTSDLSRQLEEEAVRLFIEWLRNGGPSSK([AEEA-C18 diacid])APPPS-NH2), in data set [1], the “Delta AUC for blood glucose” value is reported as −500 ± 122, *** mM × hour. This compound also yielded an EC50 in data set [2] of 0.44 nM.
For the compound `CC[C@H](C)[C@H](NC(=O)[C@H](Cc1ccccc1)NC(=O)[C@H](CC(C)C)NC(=O)[C@H](CCCNC(=N)N)NC(=O)[C@@H](NC(=O)[C@H](C)NC(=O)[C@H](CCC(=O)O)NC(=O)[C@H](CCC(=O)O)NC(=O)[C@H](CCC(=O)O)NC(=O)[C@H](CC(C)C)NC(=O)[C@H](CCC(N)=O)NC(=O)[C@H](CCCNC(=N)N)NC(=O)[C@H](CO)NC(=O)[C@H](CC(C)C)NC(=O)[C@H](CC(=O)O)NC(=O)[C@H](CO)NC(=O)[C@@H](NC(=O)[C@H](Cc1ccccc1)NC(=O)[C@@H](NC(=O)CNC(=O)[C@H](CCC(=O)O)NC(=O)CNC(=O)[C@@H](N)Cc1c[nH]cn1)[C@@H](C)O)[C@@H](C)O)C(C)C)C(=O)N[C@@H](CCC(=O)O)C(=O)N[C@@H](Cc1c[nH]c2ccccc12)C(=O)N[C@@H](CC(C)C)C(=O)N[C@@H](CCCNC(=N)N)C(=O)N[C@@H](CC(N)=O)C(=O)NCC(=O)NCC(=O)N1CCC[C@H]1C(=O)N[C@@H](CO)C(=O)N[C@@H](CO)C(=O)N[C@@H](CCCCNC(=O)COCCOCCNC(=O)CC[C@H](NC(=O)CCCCCCCCCCCCCCCc1nnn[nH]1)C(=O)O)C(=O)N[C@@H](C)C(=O)N1CCC[C@H]1C(=O)N1CCC[C@H]1C(=O)N1CCC[C@H]1C(=O)N[C@@H](CO)C(N)=O` [Example 9] (H-HGEGTFTSDLSRQLEEEAVRLFIEWLRNGGPSSK([AEEA-γGlu-Palmitoyl(16-(5-tetrazolyl))])APPPS-NH2), the “Delta AUC for blood glucose” value in data set [1] is −395 ± 222, *** mM × hour. Also, the EC50 in data set [2] (setting [4]) amounted to 0.61 nM.
For `CCCCCCCCCCCCCCCCCC(=O)N[C@@H](CCC(=O)NCCOCCOCC(=O)NCCOCCOCC(=O)NCCCC[C@H](NC(=O)[C@H](CCC(N)=O)NC(=O)[C@H](CCCNC(=N)N)NC(=O)[C@H](CO)NC(=O)[C@H](CC(C)C)NC(=O)[C@H](CC(=O)O)NC(=O)[C@H](CO)NC(=O)[C@@H](NC(=O)[C@H](Cc1ccccc1)NC(=O)[C@@H](NC(=O)CNC(=O)[C@H](CCC(=O)O)NC(=O)CNC(=O)[C@@H](N)Cc1c[nH]cn1)[C@@H](C)O)[C@@H](C)O)C(=O)N[C@@H](CCC(=O)O)C(=O)N[C@@H](CCC(=O)O)C(=O)N[C@@H](CCC(=O)O)C(=O)N[C@@H](C)C(=O)N[C@H](C(=O)N[C@@H](CCCNC(=N)N)C(=O)N[C@@H](CC(C)C)C(=O)N[C@@H](Cc1ccccc1)C(=O)N[C@H](C(=O)N[C@@H](CCC(=O)O)C(=O)N[C@@H](Cc1c[nH]c2ccccc12)C(=O)N[C@@H](CC(C)C)C(=O)N[C@H](C(=O)N[C@@H](CCCNC(=N)N)C(=O)NCC(=O)NCC(=O)N1CCC[C@H]1C(=O)N[C@@H](CO)C(=O)N[C@@H](CO)C(=O)NCC(=O)N[C@@H](C)C(=O)N1CCC[C@H]1C(=O)N1CCC[C@H]1C(=O)N1CCC[C@H]1C(=O)N[C@@H](CO)C(N)=O)C(C)C)[C@@H](C)CC)C(C)C)C(=O)O` [Example 29] (H-HGEGTFTSDLSRQK([AEEA-AEEA-γGlu-Stearoyl])EEEAVRLFIEWLVRGGPSSGAPPPS-NH2; N-terminus assumed), in data set [3], the “Formation rate of peptide related impurities at 40° C.” value amounted to 2.0 %/week. For the same compound, the EC50 in data set [2] (setting [4]) stood at 0.059 nM.
